Experimental data taken from ChEMBL document CHEMBL1201862, “PubChem BioAssay data set” (2004).
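Compound exposure: 48 hours, 5 concentrations, 96-well plates. GI50 marks 50% less growth.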 The source made the active and inactive calls. No stated cut-off is given here; in the data, active = GI50 up to about 1.1 µM and inactive = higher.

How the values were obtained:
Test in all cases: DTP human tumour cell line panel, 48 h
A498 = test system: A498
DMS-114 = test system: DMS-114
SF-295 = test system: SF-295
SF-539 = test system: SF-539
UO-31 = test system: UO-31
HL-60 = test system: HL-60
NCI-H226 = test system: NCI-H226
CAKI-1 = test system: CAKI-1
OVCAR-3 = test system: OVCAR-3
OVCAR-5 = test system: OVCAR-5
DLD-1 = test system: DLD-1
HOP-92 = test system: HOP-92
HT-29 = test system: HT-29
SW-620 = test system: SW-620
Malme-3M = test system: Malme-3M
RPMI-8226 = test system: RPMI-8226
NCI-H23 = test system: NCI-H23
CCRF-CEM = test system: CCRF-CEM
EKVX = test system: EKVX
ACHN = test system: ACHN
LXFL 529 = test system: LXFL 529
HOP-62 = test system: HOP-62
SNB-78 = test system: SNB-78
HCT-15 = test system: HCT-15
TK-10 = test system: TK-10
IGROV-1 = test system: IGROV-1
NCI-H522 = test system: NCI-H522
LOX IMVI = test system: LOX IMVI
SN12C = test system: SN12C
786-0 = test system: 786-0
KM12 = test system: KM12
KM-20L2 = test system: KM-20L2
U-251 = test system: U-251
SK-OV-3 = test system: SK-OV-3
SF-268 = test system: SF-268
K562 = test system: K562
HCC 2998 = test system: HCC 2998
A549 = test system: A549
UACC-62 = test system: UACC-62
MOLT-4 = test system: MOLT-4
NCI-H460 = test system: NCI-H460
UACC-257 = test system: UACC-257
OVCAR-4 = test system: OVCAR-4
M14 = test system: M14
OVCAR-8 = test system: OVCAR-8
COLO 205 = test system: COLO 205
SNB-19 = test system: SNB-19
SK-MEL-5 = test system: SK-MEL-5
DMS-273 = test system: DMS-273
M19-MEL = test system: M19-MEL
RXF 393 = test system: RXF 393
HCT-116 = test system: HCT-116
SK-MEL-28 = test system: SK-MEL-28
SR = test system: SR
SNB-75 = test system: SNB-75
MDA-MB-231 = test system: MDA-MB-231
BT-549 = test system: BT-549
MCF7 = test system: MCF7
Hs-578T = test system: Hs-578T
MDA-N = test system: MDA-N
DU-145 = test system: DU-145
MDA-MB-435 = test system: MDA-MB-435
PC-3 = test system: PC-3
NCI/ADR-RES = test system: NCI/ADR-RES
SK-MEL-2 = test system: SK-MEL-2
T47D = test system: T47D

COC(=O)/C=C(C)/C=C/C1OC(C)OCC1O (centres undefined)
GI50 (A498): > 100 µM (inactive)
GI50 (DMS-114): > 100 µM (inactive)
GI50 (SF-295): > 100 µM (inactive)
GI50 (SF-539): > 100 µM (inactive)
GI50 (UO-31): > 100 µM (inactive)
GI50 (HL-60): > 100 µM (inactive)
GI50 (NCI-H226): > 100 µM (inactive)
GI50 (CAKI-1): > 100 µM (inactive)
GI50 (OVCAR-3): > 100 µM (inactive)
GI50 (OVCAR-5): > 100 µM (inactive)
GI50 (DLD-1): > 100 µM (inactive)
GI50 (HOP-92): > 100 µM (inactive)
GI50 (HT-29): > 100 µM (inactive)
GI50 (SW-620): > 100 µM (inactive)
GI50 (Malme-3M): > 100 µM (inactive)
GI50 (RPMI-8226): > 100 µM (inactive)
GI50 (NCI-H23): > 100 µM (inactive)
GI50 (CCRF-CEM): > 100 µM (inactive)
GI50 (EKVX): > 100 µM (inactive)
GI50 (ACHN): > 100 µM (inactive)
GI50 (LXFL 529): > 100 µM (inactive)
GI50 (HOP-62): > 100 µM (inactive)
GI50 (SNB-78): > 100 µM (inactive)
GI50 (HCT-15): > 100 µM
GI50 (TK-10): > 100 µM (inactive)
GI50 (IGROV-1): > 100 µM (inactive)
GI50 (NCI-H522): > 100 µM (inactive)
GI50 (LOX IMVI): > 100 µM (inactive)
GI50 (SN12C): > 100 µM (inactive)
GI50 (786-0): > 100 µM (inactive)
GI50 (KM12): > 100 µM (inactive)
GI50 (KM-20L2): > 100 µM (inactive)
GI50 (U-251): > 100 µM (inactive)
GI50 (SK-OV-3): > 100 µM (inactive)
GI50 (SF-268): > 100 µM (inactive)
GI50 (K562): > 100 µM (inactive)
GI50 (HCC 2998): > 100 µM (inactive)
GI50 (A549): > 100 µM (inactive)
GI50 (UACC-62): > 100 µM (inactive)
GI50 (MOLT-4): > 100 µM (inactive)
GI50 (NCI-H460): > 100 µM (inactive)
GI50 (UACC-257): > 100 µM (inactive)
GI50 (OVCAR-4): > 100 µM (inactive)
GI50 (M14): > 100 µM (inactive)
GI50 (OVCAR-8): > 100 µM (inactive)
GI50 (COLO 205): > 100 µM (inactive)
GI50 (SNB-19): > 100 µM (inactive)
GI50 (SK-MEL-5): > 100 µM (inactive)
GI50 (DMS-273): > 100 µM (inactive)
GI50 (M19-MEL): > 100 µM (inactive)

CCCCCCCCCCCCOP(N)(=O)OCCCCCCCCCCCC
GI50 (DMS-114): > 100 µM (inactive)
GI50 (SF-295): > 100 µM (inactive)
GI50 (SF-539): > 100 µM (inactive)
GI50 (UO-31): > 100 µM (inactive)
GI50 (HL-60): > 100 µM (inactive)
GI50 (OVCAR-3): > 100 µM (inactive)
GI50 (DLD-1): > 100 µM (inactive)
GI50 (RXF 393): > 100 µM (inactive)
GI50 (SW-620): > 100 µM (inactive)
GI50 (HCT-116): > 100 µM (inactive)
GI50 (Malme-3M): > 100 µM (inactive)
GI50 (RPMI-8226): > 100 µM (inactive)
GI50 (SK-MEL-28): > 100 µM (inactive)
GI50 (NCI-H23): > 100 µM (inactive)
GI50 (CCRF-CEM): > 100 µM (inactive)
GI50 (EKVX): > 100 µM (inactive)
GI50 (ACHN): > 100 µM (inactive)
GI50 (LXFL 529): > 100 µM (inactive)
GI50 (HOP-62): > 100 µM (inactive)
GI50 (SR): > 100 µM (inactive)
GI50 (SNB-75): > 100 µM (inactive)
GI50 (SNB-78): > 100 µM (inactive)
GI50 (HCT-15): > 100 µM
GI50 (TK-10): > 100 µM (inactive)
GI50 (IGROV-1): > 100 µM (inactive)
GI50 (NCI-H522): > 100 µM (inactive)
GI50 (LOX IMVI): > 100 µM (inactive)
GI50 (SN12C): > 100 µM (inactive)
GI50 (786-0): > 100 µM (inactive)
GI50 (U-251): > 100 µM (inactive)
GI50 (SK-OV-3): > 100 µM (inactive)
GI50 (SF-268): > 100 µM (inactive)
GI50 (K562): > 100 µM (inactive)
GI50 (HCC 2998): > 100 µM (inactive)
GI50 (A549): > 100 µM (inactive)
GI50 (UACC-62): > 100 µM (inactive)
GI50 (MOLT-4): > 100 µM (inactive)
GI50 (NCI-H460): > 100 µM (inactive)
GI50 (UACC-257): > 100 µM (inactive)
GI50 (M14): > 100 µM (inactive)
GI50 (OVCAR-8): > 100 µM (inactive)
GI50 (COLO 205): > 100 µM (inactive)
GI50 (SNB-19): > 100 µM (inactive)
GI50 (DMS-273): > 100 µM (inactive)
GI50 (M19-MEL): > 100 µM (inactive)

CC(C)(C)c1cc(OCc2nnc(S)n2N)c(Cl)cc1OCc1nnc(S)n1N
GI50 (A498): 30.6 µM (inactive)
GI50 (MDA-MB-231): 27.5 µM (inactive)
GI50 (BT-549): 37.5 µM (inactive)
GI50 (SF-295): 43.1 µM (inactive)
GI50 (SF-539): 48.3 µM (inactive)
GI50 (MCF7): 38.5 µM (inactive)
GI50 (UO-31): 63.2 µM (inactive)
GI50 (Hs-578T): 43 µM (inactive)
GI50 (MDA-N): 41.3 µM (inactive)
GI50 (HL-60): 4.19 µM (inactive)
GI50 (NCI-H226): > 100 µM (inactive)
GI50 (CAKI-1): > 100 µM (inactive)
GI50 (OVCAR-3): 32.4 µM (inactive)
GI50 (OVCAR-5): 63.7 µM (inactive)
GI50 (HOP-92): 28.1 µM (inactive)
GI50 (RXF 393): 26.2 µM (inactive)
GI50 (HT-29): 43.9 µM (inactive)
GI50 (SW-620): 43.2 µM (inactive)
GI50 (HCT-116): 33 µM (inactive)
GI50 (Malme-3M): 38.1 µM (inactive)
GI50 (RPMI-8226): 29.5 µM (inactive)
GI50 (SK-MEL-28): 45.9 µM (inactive)
GI50 (NCI-H23): 42.8 µM (inactive)
GI50 (CCRF-CEM): 22.9 µM (inactive)
GI50 (EKVX): 49.7 µM (inactive)
GI50 (ACHN): 63.7 µM (inactive)
GI50 (HOP-62): 59 µM (inactive)
GI50 (SR): 22.3 µM (inactive)
GI50 (SNB-75): 44.1 µM (inactive)
GI50 (HCT-15): 55.8 µM
GI50 (DU-145): 59 µM (inactive)
GI50 (TK-10): 52.2 µM (inactive)
GI50 (IGROV-1): 44.9 µM (inactive)
GI50 (NCI-H522): 35.2 µM (inactive)
GI50 (LOX IMVI): 34.8 µM (inactive)
GI50 (MDA-MB-435): 39.5 µM (inactive)
GI50 (SN12C): 28.4 µM (inactive)
GI50 (786-0): 59.6 µM (inactive)
GI50 (PC-3): 28.2 µM (inactive)
GI50 (KM12): 40.9 µM (inactive)
GI50 (NCI/ADR-RES): > 100 µM (inactive)
GI50 (SK-MEL-2): 18.4 µM (inactive)
GI50 (U-251): 29.7 µM (inactive)
GI50 (SK-OV-3): > 100 µM (inactive)
GI50 (SF-268): 45.5 µM (inactive)
GI50 (K562): 37.7 µM (inactive)
GI50 (HCC 2998): 31.1 µM (inactive)
GI50 (A549): 52.2 µM (inactive)
GI50 (UACC-62): 20.7 µM (inactive)
GI50 (MOLT-4): 22.6 µM (inactive)
GI50 (NCI-H460): 24 µM (inactive)
GI50 (UACC-257): 33 µM (inactive)
GI50 (OVCAR-4): 43.3 µM (inactive)
GI50 (T47D): 30.6 µM (inactive)
GI50 (M14): 51.3 µM (inactive)
GI50 (OVCAR-8): 50.5 µM (inactive)
GI50 (COLO 205): 42.2 µM (inactive)
GI50 (SNB-19): 42.1 µM (inactive)
GI50 (SK-MEL-5): 26.5 µM (inactive)
